Results on three molecules are retold here after publication PMC11571108, “Targeting PfCLK3 with Covalent Inhibitors: A Novel Strategy for Malaria Treatment” (Journal of Medicinal Chemistry, 2024).

In test [1] the test system is PfCLK3 kinase domain (334–699). Kind of test: Intact protein mass spectrometry, covalent adduct formation. The settings on record: for Covalent Adduct Formation (%): pH 7.4, 4 h incubation. The test is classed as binding, Plasmodium falciparum. The text has this: Covalent adduct formation was investigated by intact protein mass spectrometry.
The subject of test [2] is asexual P. falciparum 3D7 parasites. Description: Time of inhibition assays in 3D7 parasites. Type of test: cell-based. The settings on record: Plasmodium falciparum, read at 72 hpi. The protocol: Synchronised parasites between 0.4 and 0.6% parasitemia at 4% hematocrit were plated in 384 well plates. To early ring stage plate (0−) rings, serially diluted drugs were added to the parasites in triplicate and incubated as plate 1. At 16 hpi, late ring stage parasites were exposed to the same drug concentrations previously diluted as in plate 1. This was repeated for 24 hpi plates. […] As described previously, the plates were thawed at RT for about an hour before they were SyBr green stained in lysis buffer.

The structures appear in SMILES notation. Where two headings read alike, the source gives them in different places.

As to `COc1ccc(CN2CCN(C(=O)/C=C/CN(C)C)CC2)cc1-c1cc2c(-c3ccc(C(=O)O)cc3)ccnc2[nH]1` [Compound 3, 4-{2-[5-({4-[(2E)-4-(dimethylamino)but-2-enoyl]piperazin-1-yl}methyl)-2-methoxyphenyl]-1H-pyrrolo[2,3-b]pyridin-4-yl}benzoic Acid], the “covalent adduct formation (observed or not)” value in test [1] (pH 7.4, 4 h) is “no adduct formation”. In test [1], the “Covalent Adduct Formation (%)” value was found to be 0%.

Take `C[C@@H]1CC[C@H]2[C@@H](C)C(=O)O[C@@H]3O[C@@]4(C)CC[C@@H]1[C@]32OO4` [Artemisinin]: the EC50 in test [2] (dosed at 16 hpi, read-out: pEC50 (3D7) 16 hpi (converted)) is 112 nM; in test [2] (dosed at 24 hpi, read-out: pEC50 (3D7) 24 hpi (converted)), 95.5 nM; in test [2] (dosed at early-ring stage (0 h), read-out: pEC50 (3D7) 0-3 hpi (converted)) it was 13.5 nM.

As to `C=CC(=O)N1CCN(Cc2ccc(OC)c(-c3cc4c(-c5ccc(C(=O)O)cc5)ccnc4[nH]3)c2)CC1` [Compound 2, 4-[2-(2-methoxy-5-{[4-(prop-2-enoyl)piperazin-1-yl]methyl}phenyl)-1H-pyrrolo[2,3-b]pyridin-4-yl]benzoic Acid], the “covalent adduct formation (observed or not)” value in test [1] (pH 7.4, 4 h) is reported as “no covalent adduct formation was observed”; in test [1] (pH raised to 9), “adduct formation was observed”. The “Covalent Adduct Formation (%)” value in test [1] amounted to 0%.
